Values of other authors as cited in PMC8583936, “Machine Learning Assisted Approach for Finding Novel High Activity Agonists of Human Ectopic Olfactory Receptors” (International Journal of Molecular Sciences, 2021).
Read-outs that look alike come from different tables or passages of the source.

Columns and labels:
[1] = molecular target: T1, OR2W1 (Homo sapiens, UniProt Q9Y3N9); conditions: cited from earlier work
T1 sequence (Q9Y3N9 1-320): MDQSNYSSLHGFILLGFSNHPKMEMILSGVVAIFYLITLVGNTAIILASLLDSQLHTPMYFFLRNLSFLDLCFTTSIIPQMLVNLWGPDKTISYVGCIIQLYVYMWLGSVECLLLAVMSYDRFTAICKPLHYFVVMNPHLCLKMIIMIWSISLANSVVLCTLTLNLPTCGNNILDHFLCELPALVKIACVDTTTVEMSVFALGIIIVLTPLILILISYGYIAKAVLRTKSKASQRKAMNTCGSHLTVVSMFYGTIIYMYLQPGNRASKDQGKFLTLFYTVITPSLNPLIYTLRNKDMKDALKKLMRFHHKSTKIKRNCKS

[2] = molecular target: T2, OR1A1 (Homo sapiens, UniProt Q9P1Q5); conditions: cited from earlier work
T2 sequence (Q9P1Q5 1-309): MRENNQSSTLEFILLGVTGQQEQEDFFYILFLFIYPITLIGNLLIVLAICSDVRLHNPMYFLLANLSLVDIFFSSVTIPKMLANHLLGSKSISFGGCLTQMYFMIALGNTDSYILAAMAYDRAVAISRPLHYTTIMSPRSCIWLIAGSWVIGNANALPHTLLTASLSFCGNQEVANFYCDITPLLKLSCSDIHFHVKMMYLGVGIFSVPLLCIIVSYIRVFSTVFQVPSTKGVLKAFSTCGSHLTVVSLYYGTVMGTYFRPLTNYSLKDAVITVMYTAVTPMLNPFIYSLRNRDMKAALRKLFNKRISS

[3] = Table S2, ref Supplement references [2]-[12] as printed after each odorant name
[4] = Table S1, ref Supplement references [1]-[9] as printed after each odorant name

SMILES | Class (agonist / non-agonist / antagonist / conflicting info.) for OR2W1 [1, 3] | Class (agonist / non-agonist / conflicting info.) for OR1A1 [2, 4] | Class (agonist / non-agonist / antagonist / conflicting info.) for OR2W1 [1] | Class (agonist / non-agonist / conflicting info.) for OR1A1 [2]
C=CCc1ccc(OC)c(OC)c1 [Eugenol methyl ether] | Non-agonist | Conflicting info. |  | 
CCc1ncc(C)nc1CC [2,3-dietyl-5-methylpyrazine] | Non-agonist | Non-agonist |  | 
CCCCCCOC(C)=O [Hexyl acetate] | Agonist | Non-agonist |  | 
COC1=C(C)OC(C)C1=O (centres unmarked) [4-Methoxy-2,5-dimethyl-3(2H)-furanone] | Non-agonist | Non-agonist |  | 
CCCC(=O)OC [Methyl butyrate] |  |  | Non-agonist | Non-agonist
C=CC(=O)CC [Ethyl vinyl ketone] | Non-agonist | Non-agonist |  | 
C[C@@]12C=CC[C@H]1[C@@H]1CCC3=CC(=O)CC[C@]3(C)[C@H]1CC2 [Androstadienone] |  |  | Antagonist | Agonist
CCO [Ethanol] | Non-agonist | Non-agonist |  | 
O=C/C=C/c1ccccc1 [Cinnamaldehyde] | Non-agonist | Agonist |  | 
CC(C)(O)CCCC1=CCC(C=O)CC1 (centres unmarked) [Lyral] | Non-agonist | Conflicting info. |  | 
CCc1ccc(O)c(OC)c1 [2-Methoxy-4-ethylphenol] | Non-agonist | Non-agonist |  | 
CCOC(=O)Cc1ccccc1 [Ethylphenyl acetate] |  |  | Non-agonist | Agonist
c1ccccc1 [Benzene] | Non-agonist | Conflicting info. |  | 
Cc1ccccc1O [2-methylphenol] |  |  | Non-agonist | Non-agonist
CCCCCCCCCC=O [Decanal] | Non-agonist | Conflicting info. |  | 
CCCCCC/C=C\C=O [2-nonenal, (2z)-] | Non-agonist | Non-agonist |  | 
CC12CCC(CC1)C(C)(C)O2 [1,8-cineole] | Non-agonist | Non-agonist |  | 
CCCCCC1=C(C)CCC1=O [Dihydrojasmone] | Agonist | Agonist |  | 
CC1=CC[C@H](C(C)C)C=C1 [Alpha-phellandrene] | Non-agonist | Non-agonist |  | 
CC(=O)OCCc1ccccc1 [2-Phenylethyl acetate] | Agonist | Agonist |  | 
CC(C)C=O [Isobutylraldehyde] | Non-agonist | Non-agonist |  | 
CCCCC(CC)CCC(=O)O (centres unmarked) [4-Ethyloctanoic acid] | Non-agonist | Non-agonist |  | 
CCC(=O)OC(C)(C)C [Tert-Butyl propionate] | Non-agonist | Non-agonist |  | 
CCCCC1OC(=O)CC1C (centres unmarked) [5-Butyl-4-methyloxolan-2-one] | Non-agonist | Non-agonist |  | 
CCCC/C=C/C=O [(E)-2-heptenal] | Agonist | Non-agonist |  | 
CCc1ccc(O)cc1 [4-ethylphenol] | Non-agonist | Non-agonist |  | 
CC1(C)CC(=O)CC(=O)C1 [Dimedone] | Non-agonist | Non-agonist |  | 
CC(=O)C(C)=O [Diacetyl] | Non-agonist | Non-agonist |  | 
